From article PMC11325505, “Nitrogen-Containing Flavonoids—Preparation and Biological Activity” (ACS Omega, 2024)
≈ marks a conversion by molar mass, not a printed value. Like-named read-outs stand apart in the source and are kept apart here.

Experiments:
MRSA 3596 = assay: Mode of antimicrobial action with erythromycin or gentamicin, ermA- and aadD-positive strain; type: cell-based, S. aureus; conditions: for MIC, Gentamicin [1 mg/L] yes / MIC: MRSA 3596 (aadD); for MIC, Gentamicin [1 mg/L] yes: with gentamicin 1 mg/L; for MIC: Staphylococcus aureus, 24 h, read-out: MIC, Gentamicin [1 mg/L] no, without gentamicin, Table S6; for MIC, erythromycin [1 mg/L] yes / MIC, erythromycin [1 mg/L] no: MRSA 3596 (ermA); for MIC, erythromycin [1 mg/L] yes: with erythromycin 1 mg/L; for MIC, erythromycin [1 mg/L] no: without erythromycin, Table 4
Source text: Erythromycin is a macrolide antibiotic that inhibits proteosynthesis by binding to the 50S subunit of the ribosome. In Staphylococcus species, resistance to erythromycin is associated with the presence of methyltransferases (encoded by erm genes) that alter the ribosomal target site. Another typical mechanism of resistance to erythromycin is the presence of an ATP-dependent efflux pump encoded by the msr(A) gene or a major facilitator superfamily (MFS) pump encoded by the lmrS gene. Both efflux pumps reduce the concentration of erythromycin in the cell below the therapeutic dose by transporting it across the membrane to the extracellular space. Another erythromycin resistance gene is the mph(C) gene, the product of which is a phosphotransferase that alters the structure of macrolide antibiotics. To elucidate the mechanism of erythromycin resistance modulation in S. aureus, further tests were performed with the strains MRSA 331 and MRSA 3596, which inactivate erythromycin via a single mechanism (ermC and ermA, respectively). […] Therefore, if the activity was not strain-specific, it would be necessary to consider the effect of the derivatives on this pump (Table 3).
(§1) Among the mechanisms of resistance to gentamicin previously described in S. aureus, the presence of enzymes that alter the structure of aminoglycosides is crucial. These enzymes can transfer nucleotides, phosphates, or acetyls to various −OH or −NH2 groups of gentamicin, preventing its subsequent interaction with the cellular target, i.e., the 30S ribosomal subunit. The bifunctional aminoglycoside-modifying enzyme with acetylation and phosphotransferase activities encoded by the gene aac(6’)/aph(2’), 4′,4″ adenyltransferase encoded by the aadD gene, and aminoglycoside O-phosphotransferase encoded by the gene aph(3′) are the most important.[37] […] For this reason, further testing continued using strains MRSA 3596 and MRSA 1584, which inactivate gentamicin only by a single mechanism (aadD and aac(6’)-aph(2’’), respectively).
(§2) Sensitization of multidrug-resistant clinical bacterial strains was performed according to ref[15]. Antibiotic cutoff concentration was chosen according to the European Committee on Antimicrobial Susceptibility Testing (EUCAST, Clinical breakpoints–bacteria, ver. 11.0). The 200 μM concentration of the derivatives was chosen as the highest test concentration. The absorbance detected at 600 nm was then used to estimate the number of viable cells after 24 h of incubation at 37 °C and 120 rpm.
(§3) Experiments were performed with the respective number of replicates indicated in each figure/table. MIC was determined as IC70. Both IC70 and IC50 values were calculated using the following nonlinear regression in the software GraphPad Prism: […]

RAW 264.7 cells = assay: Cellular antioxidant activity (CAA); type: cell-based, Murine; conditions: for IC50: Mus musculus, RAW264.7, macrophages RAW 264.7, average of four repetitions ± standard error of the mean; for change of antioxidant activity compared to the parent compound, in words: CAA in macrophages
Protocol: To evaluate the antioxidant activity of the prepared derivatives and the respective parent compounds, cellular antioxidant activity (CAA) was measured in macrophages. Compared to other in vitro antioxidant assays, this method provides partial information about the uptake and metabolism of the compounds, because, in this assay, they must first enter the cell to exert antioxidant activity.[31] […] Derivatization of quercetin at C-8 with 4-fluoroaniline (5) increased the antioxidant activity of quercetin by 1.7-fold. […] The concentration of these derivatives required to halve the cellular radicals decreased 1.5-fold compared to luteolin.
Cellular antioxidant capacity was evaluated as previously described.[31],[39] Briefly, 100 μL of RAW 264.7 cells with a density corresponding to 1 × 10^6 cells/mL were split into 96-well plates. After 24 h, cells were washed with PBS, and DMEM supplemented with DCFH-DA (0.0125 mg/mL) was added to each well together with the tested samples in the concentration range of 1.5–200 μM. After 1 h incubation in a CO2 incubator, the medium was replaced with AAPH solution (0.16 mg/mL in PBS), and fluorescence was immediately recorded (ex./em. 485/540 nm) for 2 h in 5 min intervals.

S. aureus MRSA 9 = assay: Antibacterial activity, multidrug-resistant strain; type: cell-based; conditions: Staphylococcus aureus, MRSA; multidrug-resistant strain; three repetitions ± SEM
Protocol: To evaluate the ability to modulate bacterial resistance, the tested flavonoids themselves cannot exert antimicrobial activity; therefore, the nontoxic concentration was used, as indicated in Table S5. Clinically relevant antibiotics were selected at breakpoint concentrations for susceptibility testing according to the European Committee on Antimicrobial Susceptibility Testing (EUCAST, version 11.0). […] Flavonoids and their derivatives (from 1 μM to the highest nontoxic concentration) were used in combination with the breakpoint concentration of the antibiotics. After coincubation, the minimum inhibitory concentration (MIC) of flavonoids inhibiting the visible growth of bacteria was determined (Table 2).
as §2, §3

[1] = system: interleukin 6 (IL-6) production by RAW 264.7 stimulated by LPS; assay: Anti-inflammatory activity: IL-6 production by LPS-stimulated macrophages; type: cell-based, Murine; conditions: for ability to inhibit IL-6 production compared to luteolin, in words: LPS-stimulated macrophages; for IC50: Mus musculus, RAW264.7, LPS-stimulated RAW 264.7, average of four repetitions ± SEM
Protocol: The anti-inflammatory activity of flavonoids was evaluated as their ability to decrease the production of signaling molecules that mediate inflammation, such as nitric oxide (NO), tumor necrosis factor (TNF-α), and interleukin 6 (IL-6), in LPS-stimulated macrophages.
The anti-inflammatory activity of the tested flavonoids was determined as the ability to reduce the production of nitric oxide (NO), tumor necrosis factor (TNF-α), and interleukin 6 (IL-6) by RAW 264.7 stimulated by LPS, as previously described.[39],[40] Briefly, 1 × 10^6 cells/mL was seeded into the 96-well plate (100 μL/well). After 48 h, LPS (100 ng/mL) and the samples (3–100 μM) were added to the MEM medium. After 24 h, the medium was mixed with Griess reagent (0.04 g/mL) at a 1:1 ratio. The absorbance was measured after 15 min at 540 nm. Cell viability was determined using the resazurin assay.
To determine TNF-α levels, cells were precultivated with the tested compounds for 24 h. After 2 h of incubation with LPS, the medium was diluted 1:10 with ELISA diluent. To determine the level of IL-6, cells were cultivated for 6 h with LPS and the tested compounds. Cytokine production was determined using an uncoated ELISA performed according to the manufacturer’s instructions.

MRSA 1584 = assay: Mode of antimicrobial action with gentamicin, aac(6')/aph(2')-positive strain; type: cell-based, Staphylococcus aureus; conditions: for effect (mode of action with gentamicin) / FIC (Fractional Inhibitory Concentration Index) / MIC: MRSA 1584; for MIC, Gentamicin [1 mg/L] yes: MRSA 1584 (aac(6')/aph(2')), with gentamicin 1 mg/L; for FIC (Fractional Inhibitory Concentration Index): with gentamicin; for MIC: Staphylococcus aureus, 24 h, read-out: MIC, Gentamicin [1 mg/L] no, without gentamicin
Source text: as §1, §2, §3

[2] = system: immortalized human keratinocytes (HaCaT); assay: Cytotoxicity (resazurin assay), keratinocytes; type: cell-based; conditions: Homo sapiens, HaCaT, 72 h, read-out: HaCaT IC50 (concentration that halved the viability)
Protocol: The cytotoxicity of the prepared derivatives was evaluated by their ability to decrease the viability of immortalized human keratinocytes (HaCaT) and human dermal fibroblasts (HDF).
100 μL of cell suspension containing 10^5 cells/mL was pipetted into a 96-well plate. After 24 h incubation, the tested compounds were added in the concentration range 12.5–200 μM. After 72 h incubation, the cell viability was tested by standard resazurin assay.[41] Briefly, the cells were washed with PBS and incubated with 100 μL of resazurin solution (0.025 mg/mL) for 2 h. The fluorescence was measured at a wavelength of 560 nm excitation/590 nm emission.

[3] = 72 h incubation, resazurin, average of three repetitions ± SEM

| SMILES | effect (mode of action with gentamicin) (MRSA 3596; MRSA 3596) | MIC, Gentamicin [1 mg/L] yes (MRSA 3596) | FIC (Fractional Inhibitory Concentration Index) (MRSA 3596; MRSA 3596, with gentamicin) | MIC (MRSA 3596) | IC50 (RAW 264.7 cells) | IC50 (S. aureus MRSA 9) | ability to inhibit IL-6 production compared to luteolin, in words [1] | IC50 [1] | effect (mode of action with gentamicin) (MRSA 1584) | MIC, Gentamicin [1 mg/L] yes (MRSA 1584) | FIC (Fractional Inhibitory Concentration Index) (MRSA 1584) | MIC (MRSA 1584) | IC50 [2, 3] | effect (mode of action with erythromycin) (MRSA 3596; MRSA 3596) | MIC, erythromycin [1 mg/L] yes (MRSA 3596) | MIC, erythromycin [1 mg/L] no (MRSA 3596) | change of antioxidant activity compared to the parent compound, in words (RAW 264.7 cells) | IC50 [2] | FIC (Fractional Inhibitory Concentration Index) (MRSA 3596; MRSA 3596, with erythromycin) |
| --- | --- | --- | --- | --- | --- | --- | --- | --- | --- | --- | --- | --- | --- | --- | --- | --- | --- | --- | --- |
| O=c1cc(-c2ccc(O)c(O)c2)oc2c(Nc3ccccc3)c(O)cc(O)c12 [compound 13, 2-(3,4-Dihydroxyphenyl)-8-(anilino)-5,7-dihydroxy-4H–1-benzopyran-4-one] | synergy (Fractional Inhibitory Concentration Index (FIC) < 0.5 indicates synergism) | 23.2 ± 0.4 µM (≈ 8.75 µg/mL) | 0.25 ± 0.01 | 93 ± 0.6 µM (≈ 35.1 µg/mL) | 3.1 ± 0.1 µM | 51.3 ± 1.3 µM | same ability to inhibit IL-6 production as luteolin | 7.3 ± 0.6 µM | additive (> 0.5-1 indicates additive effects) | 49.9 ± 8.1 µM (≈ 18.8 µg/mL) | 0.70 ± 0.12 | 70.9 ± 0.3 µM (≈ 26.8 µg/mL) | 41.4 ± 3.7 µM | – | – | – | – | – | – |
| O=c1c(O)c(-c2ccc(O)c(O)c2)oc2c(Nc3ccc(C(F)(F)F)cc3)c(O)cc(O)c12 [compound 8, 2-(3,4-Dihydroxyphenyl)-8-(4-(trifluoromethyl)anilino)-3,5,7-trihydroxy-4H–1-benzopyran-4-one] | synergy (Fractional Inhibitory Concentration Index (FIC) < 0.5 indicates synergism) | 5.7 ± 0.1 µM (≈ 2.63 µg/mL) | – | 37.9 ± 0.1 µM (≈ 17.5 µg/mL) | 11.5 ± 0.3 µM | 35.3 ± 0.7 µM | – | 35.1 ± 1.6 µM | additive (> 0.5-1 indicates additive effects) | 23.9 ± 0.1 µM (≈ 11 µg/mL) | – | 24.5 ± 0.4 µM (≈ 11.3 µg/mL) | – | synergy (Fractional Inhibitory Concentration Index (FIC) < 0.5 indicates synergism) | 8.4 ± 1.1 µM (≈ 3.88 µg/mL) | 37.9 ± 0.1 µM (≈ 17.5 µg/mL) | significantly decreased the antioxidant activity | 117.1 ± 0.1 µM | – |
| O=c1cc(-c2ccc(O)c(O)c2)oc2c(Nc3cccc(F)c3)c(O)cc(O)c12 [compound 15, 2-(3,4-Dihydroxyphenyl)-8-(3-fluoroanilino)-5,7-dihydroxy-4H–1-benzopyran-4-one] | synergy (Fractional Inhibitory Concentration Index (FIC) < 0.5 indicates synergism) | 5.3 ± 0.1 µM (≈ 2.1 µg/mL) | 0.21 ± 0.1 | 25.7 ± 0.4 µM (≈ 10.2 µg/mL) | 6.7 ± 0.2 µM | 56.9 ± 1.9 µM | same ability to inhibit IL-6 production as luteolin | 8 ± 0.6 µM | additive (> 0.5-1 indicates additive effects) | 27.6 ± 0.5 µM (≈ 10.9 µg/mL) | 0.96 ± 0.02 | 28.6 ± 0.1 µM (≈ 11.3 µg/mL) | 26 ± 5.8 µM | – | – | – | significantly decreased the antioxidant activity | – | – |
| O=c1cc(-c2ccc(O)c(O)c2)oc2c(Nc3ccc(F)cc3)c(O)cc(O)c12 [compound 11, 2-(3,4-Dihydroxyphenyl)-8-(4-fluoroanilino)-5,7-dihydroxy-4H–1-benzopyran-4-one] | – | > 200 µM | – | > 200 µM | 2.9 ± 0.2 µM | 38 ± 1.2 µM | same ability to inhibit IL-6 production as luteolin | 7.2 ± 0.3 µM | additive (> 0.5-1 indicates additive effects) | 15.7 ± 0.9 µM (≈ 6.21 µg/mL) | 0.65 ± 0.06 | 24.1 ± 0.7 µM (≈ 9.53 µg/mL) | – | – | 28.0 ± 0.5 µM (≈ 11.1 µg/mL) | 32.9 ± 0.6 µM (≈ 13 µg/mL) | – | 76.9 ± 7.7 µM | 0.85 ± 0.03 |
